Measured values taken from article PMC13492380, “Dissecting Structural and Functional Determinants of Microtubules Stabilization through Guided Chemical Modulation” (Journal of Medicinal Chemistry, 2026).

System: Tau441 interaction with MTs in axon-like processes of neuronally differentiated PC12 cells
Assay: Fluorescence decay after photoactivation (FDAP) of PAGFP-Tau441
Assay type: cell-based, human
Source text: Building on the role of Tau dynamics in axonal MT function, , we next used Tau as a structural sensitive neuronal MAP to assess whether drug-imposed MT lattice states alter MAP recognition. To this end, we initially performed fluorescence decay after photoactivation (FDAP) experiments to assess potential changes in the interaction of the longest human Central Nervous System Tau isoform (Tau441) with MTs in axon-like processes of model neurons. We tagged Tau at the N-terminus with photoactivatable GFP (PAGFP) and expressed it exogenously in PC12 cells differentiated into a neuronal phenotype (Figure A). After locally activating a subset of labeled Tau molecules in the middle of a process, we monitored FDAP over time in the activated region (Figure B). Tau gradually dissipated from the activation site.
To quantify changes in Tau’s effective diffusion constant (D eff) as a result of its dynamic interactions with MTs, we measured FDAP at various compound concentrations and fitted the resulting decay curves using a previously established reaction-diffusion model. […] Remarkably, the GDP-like MTs stabilized by compound 1b remain largely neutral with respect to Tau-MT interactions.
PC12 cells (originally obtained from J.A. Wagner, Harvard Medical School) were cultured in serum-DMEM (DMEM supplemented with 10% fetal bovine serum and antibiotics (100 U/ml penicillin and 100 μg/mL streptomycin)) at 37 °C with 10% CO2 in a humidified incubator. For live cell imaging, cells were transfected with the respective pRc/CMV expression vector using Lipofectamine 2000 (Thermo-Fisher Scientific, USA) as previously described. FDAP experiments were performed essentially as previously described. Briefly, cells expressing PAGFP-tagged Tau441 were plated on 35 mm glass-bottom culture dishes (MatTek, USA), transfected, and neuronally differentiated by medium exchange to serum-reduced DMEM containing 100 ng/mL 7S mouse NGF. After 3 days, the medium was exchanged to serum-reduced DMEM without phenol red with NGF, and the respective compound (or DMSO for carrier control) were added at the desired concentration. After 20 h, live cell imaging was performed using a laser scanning microscope (Nikon Eclipse Ti2-) equipped with a LU-N4 laser unit with 488 and 405 nm lasers and a Fluor 60× ultraviolet-corrected objective lens (NA 1.4) and a C2+scanner enclosed in an incubation chamber at 37 °C and 5% CO2. Photoactivation was performed with a 405 nm laser using the microscope software (NIS-Elements version AR 5.02.03). The following steps were performed in a photoactivation experiment. A transfected cell with a suitable process (minimum length 30 μm) was selected in the field of view (50 μm × 50 μm) and a preactivation image was saved at 488 nm excitation. The scan window was reduced to a 6-μm diameter activation spot (corresponding to 130 pixels), and photoactivation was performed in the center of the neurite using the 405 nm blue diode (laser intensity 1.0%; corresponding to an output of 30 μW) with two scans at a pixel dwell time of 4.08 μs (corresponding to a total activation time at the spot of 1.1 ms). The scan window was enlarged to the initial size, and the first scan was performed after 1 s with the 488 nm laser at the lowest practical laser intensity. Subsequent images were acquired at a rate of 1 frame/s. 112 images with a resolution of 256 × 256 pixels were collected per activated neurite. […] Effective diffusion constants were determined by fitting the fluorescence decay data from the photoactivation experiments using a one-dimensional diffusion model function for FDAP according to. All data sets were tested for normality using the D’Agostino-Pearson and Shapiro-Wilk tests. Statistical outliers were identified using the ROUT method. Equality was assessed using a F-test to compare variances. To compare different concentrations, statistically significant differences from control were determined by a one-way ANOVA with Dunnett’s post hoc test. […]

Row | SMILES | effect on Tau's effective diffusion constant (D eff) / Tau-MT interaction (PC12 cells, 20 h treatment) | unbound Tau population (20 nM PTX (control 7.5%)) [%] | decrease in the unbound Tau population (20 nM PTX vs control) [%] | concentration with notable reduction of Tau's D eff (PC12 cells, 20 h treatment) [nM]
1 | CC(=O)OC1C(=O)C2(C)C(OC(=O)CCCCC(=O)OC3CCc4ccccc43)CC3OCC3(OC(C)=O)C2C(OC(=O)c2ccccc2)C2(O)CC(OC(=O)C(O)C(NC(=O)c3ccccc3)c3ccccc3)C(C)=C1C2(C)C (stereo not drawn) [1a, 7-O-(6″-O-(2‴,3‴-Dihydroinden-1‴-yl)hexanedioyl) Paclitaxel] | increasing Tau’s D eff |  |  | 
2 | COc1ccc2c(c1)CC(NC(=O)CCCCCCCC(=O)OC1CC3OCC3(OC(C)=O)C3C(OC(=O)c4ccccc4)C4(O)CC(OC(=O)C(O)C(NC(=O)c5ccccc5)c5ccccc5)C(C)=C(C(OC(C)=O)C(=O)C13C)C4(C)C)CC2 [1b, 7-O-((S)-9″-(7‴-Methoxy-1‴,2‴,3‴,4‴-tetrahydronaphthalen-2‴-yl)amino) −9″-oxononanoyl) Paclitaxel] | did not significantly alter Tau-MT interactions |  |  | 
3 | CC(=O)O[C@H]1C(=O)[C@@]2(C)[C@H]([C@H](OC(=O)c3ccccc3)[C@]3(O)C[C@H](OC(=O)[C@H](O)[C@@H](NC(=O)c4ccccc4)c4ccccc4)C(C)=C1C3(C)C)[C@]1(OC(C)=O)CO[C@@H]1C[C@@H]2O [PTX, Paclitaxel] | significantly reduced Tau’s D eff | 4.4 | ~40 | 5
